Measurements: ChEMBL document CHEMBL3507680, “University of Dundee, Gates Library screen for HepG2 cell viability”

Experiment: Human HepG2 cell viability assay in 384 well format
Format: toxicity, cell-based
Parameters: dose 125 nL, time 70.5 hour; concentration not given beside the values
Details: HepG2 cells, read-out: Inhibition

Row | SMILES | cytotoxicity at 70.5 h
1 | COc1cc(OC)c(C2SCC(=O)Nc3n[nH]cc32)cc1OC (stereo unspecified) | -1.01%
2 | Cc1cccnc1NC(=O)CC1(Cn2cnnn2)CCCCC1 | -7.45%
3 | O=C(COc1coc(CN2CCCCCC2)cc1=O)c1ccccc1 | 25.4%
4 | Cc1cccn2c(=O)cc(OC(=O)c3ccccc3)nc12 | -17.1%
5 | O=C1N(Cc2cccnc2)CCC12CCCNC2 (stereo unspecified) | 10.6%
6 | CS(=O)(=O)N1Cc2ccccc2C2(CCN(C(=O)c3ccno3)CC2)C1 | 7.95%
7 | COCCN1C[C@@H]2CN(C(=O)[C@H]3CCCO3)C[C@@H]2C1=O | -15.9%
8 | CC(=O)N1[C@@H](C(=O)NCC2CC2)C[C@@H]2CN(Cc3ccco3)C[C@@H]21 | 0.192%
9 | COC1CC2(CCN(Cc3ccc4c(c3)OCO4)CC2)C1 | -12.6%
10 | CCN1C(=O)CCCC12CCCN(C(=O)c1conc1C)C2 (stereo unspecified) | -12.9%
11 | O=C(Nc1ccccc1)C1=CC2(CCNCC2)c2ccccc21 | 3.63%
12 | O=C(NC1CC1)c1ccc2ccc(N3CCN(CC4CC4)CC3)n2c1 | 6.77%
13 | O=C(c1cccs1)N1CC[C@H](O)[C@@H]1Cc1ccccc1 | 29.4%
14 | O=C1CC(c2ccccc2)C2(CCN(Cc3ccccn3)CC2)N1 (stereo unspecified) | -7.79%
15 | CN(CC1CC1)c1ccc2ccc(C(=O)NCCN3CCOCC3)cn12 | -5.52%
16 | Cc1nc(N2CCCC2)nc2c1CN(C(=O)N1CCOCC1)CC2 | -14.3%
17 | CC(C)CN1CCC2(CCN(Cc3ccsc3)CC2)C1=O | 6.07%
18 | COc1ccc(S(=O)(=O)N2CCCC3(CCCN3S(C)(=O)=O)C2)cc1 (stereo unspecified) | 8.26%
19 | CS(=O)(=O)N1CCCC12CCCN(S(=O)(=O)c1cc(F)cc(F)c1)C2 (stereo unspecified) | -5.59%
20 | CNC(=O)[C@@]12CCC3(CCN(S(C)(=O)=O)CC3)[C@@H]1CN(S(C)(=O)=O)C2 | 1.46%
21 | Cc1nc(C)n(CC2CN(c3ncccn3)Cc3nccn3C2)n1 (stereo unspecified) | -8.98%

Row | SMILES | cytotoxicity at 70.5 h
22 | COCc1ncn2c1CN(C(=O)C1CC=CC1)CC2 | -8.8%
23 | O=C(Cc1ccccc1)N1CCC2(CC(=O)N(c3cccc(F)c3)C2)C1 (stereo unspecified) | -4.78%
24 | O=C(c1ccoc1)N1CCC2(CC1)C(=O)Nc1ccccc12 | -2.01%
25 | CCS(=O)(=O)N1Cc2nccn2CC(Cn2nc(C)nc2C)C1 (stereo unspecified) | -13.6%
26 | CN(C)C(=O)COC[C@]12COC[C@H]1CN(Cc1ccoc1)C2 | -6.16%
27 | O=C(c1cncnc1)N1CCCC(c2nccs2)C1 (stereo unspecified) | -3.47%
28 | c1cc(CN2CCCC(c3ccnc4nccn34)C2)ccn1 (stereo unspecified) | -3.33%
29 | Cc1cc(C)n(C2CCN(S(C)(=O)=O)CC2)n1 | 9.79%
30 | O=S(=O)(N1CCCC1)N1CC(c2ccnc(Nc3ccccn3)n2)C1 | 8.07%
31 | O=S1(=O)NC(c2ccnc(N3CCCCC3)n2)=Nc2ccccc21 | 7.4%
32 | CN(C)c1cc(C2CCCN2C(=O)c2noc3c2CCCC3)ccn1 (stereo unspecified) | -6.7%
33 | COc1ccc2c(c1)c(-c1nc(C)ncc1CN)cn2C | 13.5%
34 | Cc1cc(C)nc(N2CCC(c3ccnc(N(C)C)n3)CC2)n1 | -3.9%
35 | COc1ccccc1N1CC(NC(=O)Cn2cc(C)nn2)CC1=O (stereo unspecified) | -7.03%
36 | CCN(CC)c1ncc2c(O)nc(C3CCNCC3)cc2n1 | -4.7%
37 | COCCN1CCCC(C)(c2cc(O)[nH]n2)C1 (stereo unspecified) | 1.15%
38 | CN(C)c1ncc2c(O)nc(C3CCCNC3)cc2n1 (stereo unspecified) | -3.16%
39 | CN(C)c1nccc(C2CCN(c3ncccn3)CC2)n1 | -0.97%
40 | CN1CCC(c2cccc(NCc3nccn3C)n2)CC1 | 22.4%
41 | CC(=O)N1CCC(c2cccc(NC3CCOCC3)n2)CC1 | -1.75%
42 | COCCNc1ncc(-c2cccc(F)c2)c(-c2nccn2C)n1 | 11%

Row | SMILES | cytotoxicity at 70.5 h
43 | CCOCCCNc1ncc(-c2cccc(F)c2)c(-c2nccn2C)n1 | -3.33%
44 | O=C(CC1CCN(c2cccnn2)CC1)Nc1cccnc1 | -6.44%
45 | CN(C)CCNC(=O)CC1CCN(c2cccnn2)CC1 | -2.25%
46 | CCNC(=O)C1(Cc2cc(-c3ccc(C)cc3)no2)CCCN(C)C1 (stereo unspecified) | -5.63%
47 | CCOc1ccc(Cl)cc1C1CCCN1 (stereo unspecified) | -16.4%
48 | NC(=O)N1CC2(CCNCC2)c2cc(Cl)ccc21 | -0.465%
49 | C/C(=C\c1ccccc1)CN1CCCC(c2nnc3n2CCNCC3)C1 (stereo unspecified) | -6.58%
50 | COc1ccccc1CN1CCCCC1c1n[nH]cc1-c1cc(C)no1 (stereo unspecified) | -6.18%
51 | CN(C)c1ncc(-c2cncn2CCc2ccc3c(c2)OCCO3)cn1 | -7.82%
52 | Cc1nn(C)cc1-c1cncn1CCc1ccc2c(c1)OCCO2 | -9.48%
53 | CCc1ccc(CN2CCCCC2c2n[nH]cc2-c2cc(C)no2)cc1 (stereo unspecified) | -5.56%
54 | CCn1nc(C)c(-c2cncn2CCN(C)C2CCCC2)c1C | -7.35%
55 | Cc1cc(-c2nccs2)nc(C2CCN(Cc3ccncc3)CC2)n1 | -0.926%
56 | COc1ccc(C[C@H]2CN(C(=O)c3ccncc3)CC[C@@H]2OC)cc1 | 18.8%
57 | C[C@@H]1CN(C(=O)c2cccs2)C[C@]12CCN(CCN(C)C)C2=O | 21.2%
58 | O=C1CCCN1Cc1nnc2n1CCN(Cc1ccoc1)CC2 | 30%
59 | CC[C@@H]1N(Cc2ccsc2)CCC[C@]12CCC(=O)N2C | 18.9%
60 | CNC(=O)CN1CCCC12CCN(C(=O)c1ccc(F)cc1)CC2 | -11%
61 | CCOC1COC2(CCN(Cc3cccc(F)c3)CC2)C1 (stereo unspecified) | -12%
62 | CC[C@@H]1N(Cc2ccsc2)CCC[C@]12CCC(=O)N2CCOC | -17.5%
63 | COc1ccc(C[C@H]2CN(C(=O)CN(C)C)CC[C@H]2OC)cc1 | -6.67%

Row | SMILES | cytotoxicity at 70.5 h
64 | c1ccc(N2CCCC3(CCN(Cc4cccs4)C3)C2)nc1 (stereo unspecified) | 33.5%
65 | CN(C)CCN1CCC2(CCN(C(=O)c3ccc(F)cc3)CC2)C1=O | -8.17%
66 | O=C(C1CCCCC1)N1CCC2(CCCN2CC2CC2)CC1 | -2.81%
67 | CN(C)C(=O)CN1C(=O)CCC12CCN(Cc1ccc(F)cc1)CC2 | 5.3%
68 | Cc1ccc(C(=O)N2CCC3(CC2)CC(N2CCCC2)C3)cc1 | -10.8%
69 | COc1ccc(CN2CCN(C(C)=O)CC3(CC(=O)N(C)C3)C2)cc1 (stereo unspecified) | -0.064%
70 | Cn1cc(CN2CCCC3(CCN(c4nncs4)C3)C2)cn1 (stereo unspecified) | -0.185%
71 | CNC(=O)N1CCc2cc(C(=O)N(C)C)c(NCC3CC3)nc2CC1 | -12%
72 | O=C(NCc1cnc2n1CCN(Cc1ccsc1)CC2)C1CCC1 | -10.8%
73 | CCS(=O)(=O)N[C@@H]1CN(Cc2cc(C)on2)C[C@@H]2CCCO[C@@H]21 | -10.1%
74 | C[C@@H]1CN(Cc2ccsc2)C[C@]12CCN(Cc1cccnc1)C2=O | 39%
75 | Cc1cccc(CN2C(=O)CCC23CCN(Cc2cccn2C)CC3)n1 | -3.65%
76 | CN(C)CCN1C(=O)CCC12CCN(C(=O)c1cccnc1)CC2 | -4%
77 | CC(C)CN1CCN(C)C2(CCN(Cc3ccsc3)CC2)C1=O | 0.403%
78 | CCN1CCC2(CCC(=O)N2Cc2cccc(C)n2)CC1 | -4.89%
79 | Cc1cc(CN2C[C@@H]3CCCO[C@@H]3[C@H](Nc3ccccn3)C2)no1 | -8.77%
80 | O=C(CN(C1=NCCCC1)c1ccccc1)c1ccccc1 | 25.2%
81 | CCOc1ccc(N(CC(=O)c2ccccc2)C2=NCCCCC2)cc1 | -9.89%
